Activity calls are given as the source filed them. The rule behind the calls is not given here.
What was measured:
Hepatitis C virus [1] = assay: Antiviral activity against HCV in Huh7 cells assessed as inhibition of viral replication in presence of 10% fetal calf serum; type: functional, organism-based, Hepacivirus hominis; details: Huh-7
[2] = Inhibition of HCV NS5B deltaC RNA polymerase; design: species or system Hepacivirus hominis
Hepatitis C virus [3] = assay: Antiviral activity against HCV in Huh7 cells assessed as inhibition of viral replication in absence of serum; type: functional, organism-based, Hepacivirus hominis; details: Huh-7
[4] = Terminal phase half life in rat at 3 mg/kg, iv; type: ADME, organism-based; design: dose 3 mg/kg, route intravenous; details: in vivo
[5] = AUC in rat at 3 mg/kg, po; type: ADME, organism-based; design: dose 3 mg/kg, route oral; details: plasma
[6] = Plasma clearance in rat at 3 mg/kg, po or 3 mg/kg, iv; type: ADME, organism-based
[7] = Oral bioavailability in rat at 3 mg/kg; type: ADME, organism-based; details: in vivo
[8] = Dissociation constant, pKa of the compound; type: physicochemical
Homo sapiens = species: Homo sapiens; assay: Protein binding in human plasma assessed as free drug level; details: read-out: PPB
[9] = Cytotoxicity against Huh7 cells; type: cell-based, Huh-7; details: human

| Compound | EC50 (Hepatitis C virus [1]) | IC50 [2] | fraction unbound (Homo sapiens) | other results |
| --- | --- | --- | --- | --- |
| COc1cccc(-c2c(C3CCCCC3)c3ccc(-c4noc(=O)[nH]4)cc3n2CC(=O)N2CCC(N(C)C)CC2)c1 | 3700 nM | 67 nM |  |  |
| CCS(=O)(=O)NC(=O)c1ccc2c(C3CCCCC3)c(-c3ccccc3)n(CC(=O)N(C)C)c2c1 | 2100 nM | 46 nM |  | EC50 (Hepatitis C virus [3]): 520 nM; half-life [4]: 2 h; AUC [5]: 1 µM·h; clearance [6]: 51 mL/min/kg |
| CCS(=O)(=O)NC(=O)c1ccc2c(C3CCCCC3)c(-c3ccccc3)n(CC(=O)N(C)C)c2c1.O=C(O)C(F)(F)F |  |  |  | bioavailability [7]: 24% |
| CN(C)C(=O)Cn1c(-c2ccccc2)c(C2CCCCC2)c2ccc(-c3noc(=O)[nH]3)cc21 | 4400 nM | 68 nM | 0.001 | half-life [4]: 13 h; pKa [8]: 4.8; AUC [5]: 2 µM·h; clearance [6]: 12 mL/min/kg |
| CCN(CC)CC1CN(C(=O)Cn2c(-c3ccc(OC)cc3)c(C3CCCCC3)c3ccc(C(=O)NS(=O)(=O)CC)cc32)CCO1 (stereo unspecified) | 340 nM | 9 nM |  | CC50 [9]: 50000 nM |
| CN(C)C1CCN(C(=O)Cn2c(-c3ccccc3)c(C3CCCCC3)c3ccc(-c4noc(=O)[nH]4)cc32)CC1 | 1300 nM | 59 nM |  |  |
| CN(C)C(=O)Cn1c(-c2ccoc2)c(C2CCCCC2)c2ccc(C(=O)NS(=O)(=O)N(C)C)cc21 | 380 nM | 14 nM | 0.011 |  |
| Cc1ccccc1-c1c(C2CCCCC2)c2ccc(-c3noc(=O)[nH]3)cc2n1CC(=O)N1CCC(N(C)C)CC1 | 17000 nM | 300 nM |  |  |
| CN(C)C(=O)Cn1c(-c2ccccc2)c(C2CCCCC2)c2ccc(-c3noc(=O)[nH]3)cc21.O=C(O)C(F)(F)F |  |  |  | bioavailability [7]: 20% |
| CN(C)C(=O)Cn1c(-c2ccccc2)c(C2CCCCC2)c2ccc(C(=O)O)cc21.O=C(O)C(F)(F)F |  |  |  | bioavailability [7]: 45% |
| CN(C)C(=O)Cn1c(-c2ccccc2)c(C2CCCCC2)c2ccc(C(=O)NS(=O)(=O)CC(=O)O)cc21 | 1600 nM | 29 nM |  |  |
| CN(C)C(=O)Cn1c(-c2ccccc2)c(C2CCCCC2)c2ccc(C(=O)NS(=O)(=O)N(C)C)cc21 | 710 nM | 9 nM | 0.008 |  |
| CN(C)CCS(=O)(=O)NC(=O)c1ccc2c(C3CCCCC3)c(-c3ccccc3)n(CC(=O)N(C)C)c2c1 | 5400 nM | 31 nM | 0.019 | EC50 (Hepatitis C virus [3]): 2000 nM |
| CN(C)C(=O)Cn1c(-c2cccnc2)c(C2CCCCC2)c2ccc(-c3noc(=O)[nH]3)cc21 | 20000 nM | 780 nM |  |  |
| CN1CCC(N(C)C(=O)Cn2c(-c3ccccc3)c(C3CCCCC3)c3ccc(-c4noc(=O)[nH]4)cc32)C1 (stereo unspecified) | 1600 nM | 75 nM |  |  |
| CN(C)C(=O)Cn1c(-c2ccoc2)c(C2CCCCC2)c2ccc(C(=O)NS(=O)(=O)CC(=O)O)cc21 | 560 nM | 19 nM | 0.01 |  |
| CN(C)C1CCN(C(=O)Cn2c(-c3ccccc3F)c(C3CCCCC3)c3ccc(-c4noc(=O)[nH]4)cc32)CC1 | 2400 nM | 53 nM |  |  |
| CN(C)C(=O)Cn1c(-c2ccccc2)c(C2CCCCC2)c2ccc(C(=O)NS(=O)(=O)Cc3ccccc3)cc21 | 5000 nM | 31 nM | < 0.001 | EC50 (Hepatitis C virus [3]): 150 nM |
| CN(C)C1CCN(C(=O)Cn2c(-c3ccc(Cl)cc3)c(C3CCCCC3)c3ccc(-c4noc(=O)[nH]4)cc32)CC1 | 1900 nM | 17 nM |  |  |
| CN(C)C1CCN(C(=O)Cn2c(-c3cnn(C)c3)c(C3CCCCC3)c3ccc(-c4noc(=O)[nH]4)cc32)CC1 | > 50000 nM | 170 nM | 0.094 |  |
| CN(C)CC1CN(C(=O)Cn2c(-c3ccoc3)c(C3CCCCC3)c3ccc(-c4noc(=O)[nH]4)cc32)CCO1 (stereo unspecified) | 1100 nM | 26 nM |  |  |
| CN(C)C(=O)Cn1c(-c2ccccc2)c(C2CCCCC2)c2ccc(C(=O)N(C)S(=O)(=O)Cc3ccccc3)cc21 |  | 640 nM | 0.001 | Activity (Hepatitis C virus [1]; Hepacivirus hominis): inactive |
| CN(C)C(=O)Cn1c(-c2ccccc2)c(C2CCCCC2)c2ccc(C(=O)NS(=O)(=O)c3ccccc3)cc21 | 3900 nM | 11 nM | 0.003 | EC50 (Hepatitis C virus [3]): 130 nM |
| CCN(CC)C1CCN(C(=O)Cn2c(-c3ccoc3)c(C3CCCCC3)c3ccc(C(=O)NS(=O)(=O)N(C)C)cc32)CC1 | 120 nM | 4 nM |  | CC50 [9]: 50000 nM |
| CN1CCCC(CN(C)C(=O)Cn2c(-c3ccccc3)c(C3CCCCC3)c3ccc(-c4noc(=O)[nH]4)cc32)C1 (stereo unspecified) | 1100 nM | 47 nM | 0.021 |  |
| CN(C)C(=O)Cn1c(-c2ccccc2)c(C2CCCCC2)c2ccc(C(=O)O)cc21 | 1500 nM | 86 nM |  | half-life [4]: 5 h; pKa [8]: 4.8; AUC [5]: 2 µM·h; clearance [6]: 32 mL/min/kg |
| CCS(=O)(=O)NC(=O)c1ccc2c(C3CCCCC3)c(-c3ccoc3)n(CC(=O)N(C)C)c2c1 | 1500 nM | 22 nM | 0.008 |  |
| CCS(=O)(=O)NC(=O)c1ccc2c(C3CCCCC3)c(-c3ccc(OC)cc3)n(CC(=O)N(C)C)c2c1 | 1500 nM | 11 nM |  |  |

— ChEMBL document CHEMBL1139776, “Development of carboxylic acid replacements in indole-N-acetamide inhibitors of hepatitis C virus NS5B polymerase” (Bioorg Med Chem Lett, 2007)
